pEC50: −log10 of the molar value. Values after ≈ are worked out from the molar mass of the structure shown.
Key:
[1] = system: P. berghei-GFP parasites; test: in vivo efficacy, modified Thompson test; set-up: species or system mice; settings: three daily doses days 3-5 PI, 0.5% aqueous HEC
Description: Prodrug 6d was orally tested for in vivo efficacy at four doses (0.3 mg/kg, 1.0 mg/kg, 3.0 mg/kg, and 10 mg/kg) in 0.5% aqueous HEC solution.

[2] = aqueous solubility at pH 7.4; settings: pH 7.4, aqueous buffer
[3] = system: multidrug resistant malarial strain W2 (pyrimethamine and chloroquine resistant); test: in vitro antimalarial activity against strain W2; format: cell-based; settings: strains W2 and TM90-C2B, strain not specified
Description: (§1) FIG. 2a depicts the synthesis of 4(1H)-quinolones 1 via Conrad-Limpach reaction^24 and conversion to first set of prodrugs (2, 3 and 4) via O-acylation.
(§2) FIG. 4a depicts the synthesis of 4(1H)-quinolones 1 into amino AOCOM ether prodrugs 6 via O-alkylation and subsequent deprotection.

[4] = aqueous solubility at pH 2.5, UV-based assay; format: physicochemical; settings: aqueous solution at pH 2.5, pH 2.5, aqueous buffer; read-out: aqueous solubility at acidic pH
Description: Analogous to known AOCOM ether prodrugs, AOCOM iodides were used to prepare the desired prodrugs.^39 Thus, the synthesis route to the prodrugs commences with conversion of Boc-protected amino alcohols into corresponding Boc-protected aminoalkyloxycarbonyloxymethyl (amino AOCOM) iodides (FIG. 4a). Reaction of 4-quinolinols 1c′ and with the 1d′ with the Boc-protected amino AOCOM iodides, in presence of caesium carbonate, and subsequent deprotection leads to water-soluble HCl salts 6a-d (FIG. 4b). […] The assessment of the aqueous solubility at pH 7.4 was challenging due to the limited stability of the prodrug moiety at neutral pH and was not performed. […] In addition, solid material was rapidly dissolved in 0.5% aqueous HEC solution and visually inspected after 60 seconds for material dissolution.

[5] = system: multidrug resistant malarial strain TM90-C2B (mefloquine, chloroquine, atovaquone, pyrimethamine resistant); test: in vitro antimalarial activity against strain TM90-C2B; format: cell-based; settings: internal controls of the in vitro assay
Description: as §1, §2

[6] = physchem; settings: pH 7.4, aqueous buffer
[7] = aqueous medium at pH 7.4 (buffer not named)

COc1cc2[nH]c(C)c(-c3ccccc3C)c(=O)c2cc1Cl [1c, 6-chloro-7-methoxy-2-methyl-3-(o-tolyl)-4(1H)-quinolone, reference compound]
Suppression [%] day 6 PI ([1]; 10 mg/kg PO): 29%
Day of death (avg) ([1]; 10 mg/kg PO, untreated 13): 13
Day of death (avg) ([1]; 50 mg/kg PO): 13
Suppression [%] day 6 PI ([1]; 50 mg/kg PO): 28%
solubility [2, 7]: 8.7 µM (≈ 2.73 µg/mL)

CCN(CC)C(=O)Oc1c(-c2ccccc2C)c(C)nc2cc(OC)c(Cl)cc12 [2a]
EC50 values fold higher than reference 4(1H)-quinolone 1c [3]: 300 fold
in vitro antimalarial activity / EC50 values relative to 1c [3]: lacked in antimalarial activity
solubility [2]: < 1 µM

COc1cc2nc(C)c(-c3ccccc3C)c(OC(=O)N3CCCC3)c2cc1Cl [2b, 6-Chloro-7-methoxy-2-methyl-3-(o-tolyl)-4-((pyrrolidine-1-carbonyl)oxy)quinoline]
EC50 values fold higher than reference 4(1H)-quinolone 1c [3]: 300 fold
in vitro antimalarial activity / EC50 values relative to 1c [3]: lacked in antimalarial activity
solubility [2, 7]: 2.9 µM (≈ 1.19 µg/mL)

CNCCCOC(=O)OCOc1c(-c2ccccc2C)c(C)nc2cc(OC)c(Cl)cc12.Cl [6b, 6-Chloro-7-methoxy-2-methyl-3-(o-tolyl)-4-(((3-(methylammonio)propyloxycarbonyl)oxy)methoxy)quinoline, chloride salt]
solubility [4]: > 100 µM
Suppression [%] day 6 PI ([1]; 10 mg/kg PO): 52%
Day of death (avg) ([1]; 10 mg/kg PO, untreated 13): 13
Day of death (avg) ([1]; 50 mg/kg PO): 13
Suppression [%] day 6 PI ([1]; 50 mg/kg PO): 72%

O=C1C(O)=C([C@H]2CC[C@H](c3ccc(Cl)cc3)CC2)C(=O)c2ccccc21 [ATO, atovaquone, reference compound]
pEC50 [5]: 4.74

C[C@H]1[C@@H](O)O[C@@H]2O[C@@]3(C)CC[C@H]4[C@H](C)CC[C@@H]1[C@@]24OO3 [DHA, dihydroartemisinin, reference compound]
pEC50 [5]: 8.30

CCOC(=O)Oc1c(-c2ccccc2C)c(C)nc2cc(OC)c(Cl)cc12 [compound 4, 6-Chloro-7-methoxy-2-methyl-3-(o-tolyl)-4-((ethoxycarbonyl)oxy)quinoline]
in vitro antimalarial activity / EC50 values relative to 1c [3]: comparable to the EC50 values of 1c
solubility [6]: 1.2 µM (≈ 0.463 µg/mL)

Source: patent US20190031613A1, “COMPOUNDS AND METHODS FOR THEIR USE IN THE TREATMENT OF MALARIA” (University of South Florida, priority 2016, published 2019)
